Molecular target: T1, S. aureus PrsA-PPIase (Staphylococcus aureus, UniProt P60747)
T1 construct: parvulin-type PPIase domain, residues 140-245, GST fusion (pGEX-2T) from E. coli BL21, GST cleaved off by protease; 15N- or 13C/15N-labelled for NMR
Experiment: NMR titration
Assay type: binding
Conditions: S1-H1 loop; data not shown

T1 sequence (P60747 140-245): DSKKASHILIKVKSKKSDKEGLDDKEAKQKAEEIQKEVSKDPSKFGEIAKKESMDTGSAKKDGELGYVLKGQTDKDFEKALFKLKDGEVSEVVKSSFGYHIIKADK

O=S(=O)(O)O [sodium sulphate]
NMR titration: Binding of multivalent anions to the S1-H1 loop of PrsA-PPIase was also confirmed by NMR titrations
